Test system: Grape Downy Mildew (Plasmopara viticola)
Assay: Test Example 6: treating grape downy mildew, foliage application
Conditions: 500 ppm, foliage application 1 day after inoculation (curative), grape (Berry-A or Chardonnay seedling), 5 days green house then 1 day high humidity
Experimental: Such control effect was evaluated by visually observing the area of blotch on a test plant during a test and then comparing the area of the blotch of a plant treated with the controlling reagent of the present invention with the area of the blotch of an untreated plant.
A plastic pot was filled with sandy soil, and grape (variety: Berry-A or Chardonnay seedling) was then seeded. The grape plants were allowed to grow in a green house for 40 days. A water suspension of zoosporangium of grape Plasmopara viticola was inoculated to the aforementioned pot by spaying it. Thereafter, the grape plants were left at 23° C. at a high humidity for 1 day, and they were then air-dried, so as to obtain grape downy mildew-infected nursery plants. […] The prepared flowable formulations were set to a predetermined concentration (500 ppm) by diluting them with water, and they were then subjected to foliage application such that they could be sufficiently attached to the leaves of the aforementioned nursery grape plants. After completion of the foliage application, the plants were subjected to air-drying, and they were then left at 23° C. in a green house for 5 days. Thereafter, the plants were further left at 23° C. at a high humidity for 1 day. Thereafter, the affected areas thereof were examined.

SMILES: Cc1ccc(Oc2ccc(CNC(=O)c3cccnc3N)s2)cc1 [compound 236]
- affected areas of treated plants relative to affected areas of untreated plants: ≤ 30%

Reference: patent publication US20110009454A1, “COMPOSITION FOR AGRICULTURAL USE FOR CONTROLLING OR PREVENTING PLANT DISEASES CAUSED BY PLANT PATHOGENS” (SUMITOMO CHEMICAL COMPANY, LIMITED, priority 2008, published 2011)
